Measured values as given in US9890166B2, “Imidazopyrrolidine derivatives and their use in the treatment of disease” (NOVARTIS AG, priority 2013, dated 2018).

Experiments:
BRD4 (His-Brd4(44-477)) = BRD4 (His-Brd4(44-477)) (Homo sapiens (Human), UniProt O60885); experiment: TR-FRET in-vitro binding assay for BRD4; conditions: single determination or n ≧ 2 independent determinations, read-out: Biochemical IC50 BRD4
Protocol: (§1) TR-FRET In-Vitro Binding Assays for BRD2, BRD3, and BRD4:
(§2) All assays were performed in 384 well microtiter plates. Each assay plate contained 8-point serial dilutions for 40 test compounds, plus 16 high- and 16 low controls. Liquid handling and incubation steps were done on an Innovadyne Nanodrop Express equipped with a robotic arm (Thermo CatX, Perkin Elmer/Caliper Twister II) and an incubator (Liconic STX40, Thermo Cytomat 2C450). The assay plates were prepared by addition of 50 nl per well of compound solution in 90% DMSO HummingBird nanodispenser (Zinsser Analytic). […] Reactions were incubated at 30° C. for 35 minutes. […] After 35 minutes incubation at 30° C., plates were measured in a Perkin Elmer EnVision multilabel reader.
(§3) Preparation of Compound Dilutions
(§4) Test compounds were dissolved in DMSO (10 mM) and transferred into 1.4 mL flat bottom or V-shaped Matrix tubes carrying a unique 2D matrix. The stock solutions were stored at […] if not used immediately. For the test procedure the vials were defrosted and identified by a scanner whereby a working sheet was generated that guided the subsequent working steps.
(§5) Compound dilutions were made in 96 well plates. This format enabled the assay of maximally 40 individual test compounds at 8 concentrations (single points) including 4 reference compounds, if desired (known BET inhibitors from the prior art, for this and other assays of the type disclosed herein). The dilution protocol included the production of “pre-dilution plates”, “master plates” and “assay plates”.
(§6) Pre-Dilution Plates: 96 polypropylene well plates were used as pre-dilution plates. A total of 4 pre-dilution plates were prepared including 10 test compounds each on the plate positions A1-A10, one standard compound at A11 and one DMSO control at A12. All dilution steps were done on a HamiltonSTAR robot.
(§7) These plates were used directly for the assay which was performed in a total volume of 13.55 μL.

BRD3 (His-Brd3(20-477)) = BRD3 (His-Brd3(20-477)) (Homo sapiens (Human), UniProt Q15059); experiment: TR-FRET in-vitro binding assay for BRD3; conditions: single determination or n ≧ 2 independent determinations, read-out: Biochemical IC50 BRD3
Sequence of BRD3 (His-Brd3(20-477)) (Q15059 20-477): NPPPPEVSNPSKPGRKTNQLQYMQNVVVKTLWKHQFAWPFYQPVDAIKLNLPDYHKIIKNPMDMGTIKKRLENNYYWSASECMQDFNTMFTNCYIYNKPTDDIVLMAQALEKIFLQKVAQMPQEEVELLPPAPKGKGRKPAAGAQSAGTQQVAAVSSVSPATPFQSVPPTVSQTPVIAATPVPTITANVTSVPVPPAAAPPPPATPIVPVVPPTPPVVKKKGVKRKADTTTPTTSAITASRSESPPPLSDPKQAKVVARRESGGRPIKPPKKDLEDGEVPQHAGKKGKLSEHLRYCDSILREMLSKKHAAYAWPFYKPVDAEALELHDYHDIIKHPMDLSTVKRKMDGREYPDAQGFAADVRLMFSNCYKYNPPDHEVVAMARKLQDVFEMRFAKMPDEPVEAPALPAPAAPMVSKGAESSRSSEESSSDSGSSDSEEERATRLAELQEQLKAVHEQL
Protocol: as §1, §2, §3, §4, §5, §6, §7

MV-4-11 cells = experiment: Cell growth inhibition assay (CellTiter-Glo), MV-4-11; conditions: for GI50: Homo sapiens, MV4-11, read-out: MV-4-11 GI50; for MV-4-11 TGI: MV-4-11 cells, total growth inhibition, CellTiter-Glo;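 for all read-outs here: cellular ATP luminescence after 4 days, 3-fold dilution series from 10 µM top dose, vehicle (0.1% DMSO) set to 100%, cell-free medium set to −100%, day 0 corrected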
K-562 cells = experiment: Cell growth inhibition assay (CellTiter-Glo), K-562; conditions: for GI50: Homo sapiens, K562, read-out: K-562 GI50; for K-562 TGI: K-562 cells, total growth inhibition, CellTiter-Glo;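 for all read-outs here: cellular ATP measured by luminescence after 4 days of exposure, 3-fold dilution series from 10 µM, DMSO vehicle-treated cells define 100%, cell-free medium wells −100%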
BRD2 (His-Brd2(60-472)) = BRD2 (His-Brd2(60-472)) (Homo sapiens (Human), UniProt P25440); experiment: TR-FRET in-vitro binding assay for BRD2; conditions: single determination or n ≧ 2 independent determinations, read-out: Biochemical IC50 BRD2
Sequence of BRD2 (His-Brd2(60-472)) (P25440 60-472): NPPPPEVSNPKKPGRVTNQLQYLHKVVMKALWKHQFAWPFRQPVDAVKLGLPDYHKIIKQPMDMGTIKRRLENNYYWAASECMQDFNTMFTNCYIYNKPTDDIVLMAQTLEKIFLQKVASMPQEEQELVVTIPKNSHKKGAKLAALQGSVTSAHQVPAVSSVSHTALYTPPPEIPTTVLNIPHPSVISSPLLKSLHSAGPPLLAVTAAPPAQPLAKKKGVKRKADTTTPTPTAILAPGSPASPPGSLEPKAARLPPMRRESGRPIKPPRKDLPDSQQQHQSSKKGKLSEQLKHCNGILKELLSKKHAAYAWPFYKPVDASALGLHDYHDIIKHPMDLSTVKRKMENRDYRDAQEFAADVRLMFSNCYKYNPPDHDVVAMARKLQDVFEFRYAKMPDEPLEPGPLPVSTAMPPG
Protocol: as §1, §2, §3, §4, §5, §6, §7

THP-1 cells = experiment: Cell growth inhibition assay (CellTiter-Glo), THP-1; conditions: for GI50: Homo sapiens, THP-1, read-out: THP-1 GI50; for THP-1 TGI: THP-1 cells, total growth inhibition, CellTiter-Glo;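 for all read-outs here: viability read as cellular ATP luminescence after 4 days, 3-fold dilution series from 10 µM, DMSO vehicle-treated cells taken as 100%, cell-free medium wells as −100%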
[1] = biological target: CREBBP bromodomain (His-CREBBP(1081-1197)) (Homo sapiens (Human), UniProt Q92793); experiment: AlphaScreen in-vitro binding assay for CREBBP; conditions: single determination or n ≧ 2 independent determinations, read-out: Biochemical IC50 CREBBP
Sequence of CREBBP bromodomain (His-CREBBP(1081-1197)) (Q92793 1081-1197): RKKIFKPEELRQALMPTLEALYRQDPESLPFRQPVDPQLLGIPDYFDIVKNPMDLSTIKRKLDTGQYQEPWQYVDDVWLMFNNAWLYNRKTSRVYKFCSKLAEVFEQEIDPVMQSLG
Protocol: AlphaScreen In-Vitro Binding Assay for CREBBP
In order to assess bromodomain selectivity, we set up a binding assay using the bromodomain encoded by the CREBBP gene. […] Reactions were incubated at 30° C. for 35 minutes. Subsequently 4.5 μl per well detection mix (50 mM HEPES, pH 7.5, 0.005% Tween20, 0.02% BSA, 150 mM NaCl, 45 μg/ml Ni-chelate acceptor beads, 45 μg/mIstreptavidin-donor beads) (Perkin Elmer)) were added. After 60 minutes incubation at room temperature, plates were measured in a Perkin Elmer EnVision multilabel reader. IC50 values were determined from percent inhibition values at different compound concentrations by non-linear regression analysis.
as §3, §4, §5, §6, §7

Row | Compound | IC50 (BRD4 (His-Brd4(44-477))) [nM] | IC50 (BRD3 (His-Brd3(20-477))) [nM] | GI50 (MV-4-11 cells) [nM] | MV-4-11 TGI (MV-4-11 cells) [nM] | GI50 (K-562 cells) [nM] | K-562 TGI (K-562 cells) [nM] | IC50 (BRD2 (His-Brd2(60-472))) [nM] | GI50 (THP-1 cells) [nM] | THP-1 TGI (THP-1 cells) [nM] | IC50 [1] [nM]
1 | COc1ncccc1-c1nc2c(n1C(C)C)C(c1ccc(Cl)cc1)N(c1cc(C)c3nnn(C)c3c1)C2=O (racemic) [Example 77, 6-(4-chlorophenyl)-5-(1,4-dimethyl-1H-benzo[d][1,2,3]triazol-6-yl)-1-isopropyl-2-(2-methoxypyridin-3-yl)-5,6-dihydropyrrolo[3,4-d]imidazol-4(1H)-one] | < 24 | 39 | 4.93 | 9.36 | 21.5 | >10000 | 52 | 7.94 | 21.7 | –
2 | Cc1cc(N2C(=O)c3nc(-c4nccs4)n(C(C)C)c3C2c2ccc(Cl)cc2)cn(C)c1=O (stereo not drawn) [Example 23, 6-(4-chlorophenyl)-5-(1,5-dimethyl-6-oxo-1,6-dihydropyridin-3-yl)-1-isopropyl-2-(thiazol-2-yl)-5,6-dihydropyrrolo[3,4-d]imidazol-4(1H)-one] | 52 | 68 | 87.5 | 143 | 381 | >10000 | 55 | 158 | 311 | –
3 | Cc1nc(C)c(-c2nc3c(n2C(C)C)C(c2ccc(Cl)cc2)N(c2cc(C)c(=O)n(C)c2)C3=O)s1 (stereo not drawn) [Example 25, 6-(4-chlorophenyl)-5-(1,5-dimethyl-6-oxo-1,6-dihydropyridin-3-yl)-2-(2,4-dimethylthiazol-5-yl)-1-isopropyl-5,6-dihydropyrrolo[3,4-d]imidazol-4(1H)-one] | 99 | 79 | 65.7 | 90.4 | 528 | >10000 | 120 | 118 | 209 | –
4 | Cc1cc(N2C(=O)c3nc(-c4cccnc4F)n(C)c3C2c2ccc(Cl)cc2)cn(C)c1=O (stereo not drawn) [Example 32, 6-(4-chlorophenyl)-5-(1,5-dimethyl-6-oxo-1,6-dihydropyridin-3-yl)-2-(2-fluoropyridin-3-yl)-1-methyl-5,6-dihydropyrrolo[3,4-d]imidazol-4(1H)-one] | 170 | 130 | – | – | – | – | 180 | – | – | –
5 | Cc1cc(N2C(=O)c3nc(C4=CCOCC4)[nH]c3[C@H]2c2ccc(Cl)cc2)cn(C)c1=O [Example 152, (R)-6-(4-chlorophenyl)-2-(3,6-dihydro-2H-pyran-4-yl)-5-(1,5-dimethyl-6-oxo-1,6-dihydropyridin-3-yl)-5,6-dihydropyrrolo[3,4-d]imidazol-4(1H)-one] | 25 | 22.5 | 34.4 | 57.3 | 244 | >10000 | – | 62.7 | 135.5 | 525
6 | Cc1cc(N2C(=O)c3nc(C4=CCOCC4)n(C(C)C)c3C2c2ccc(Cl)cc2)nc2c1nnn2C (stereo not drawn) [Example 160, 6-(4-chlorophenyl)-2-(3,6-dihydro-2H-pyran-4-yl)-5-(3,7-dimethyl-3H-[1,2,3]triazolo[4,5-b]pyridin-5-yl)-1-isopropyl-5,6-dihydropyrrolo[3,4-d]imidazol-4(1H)-one] | < 11 | < 11 | 5.95 | 4.973 | 25.8 | >7000 | – | 4.6 | 6.383 | > 37000
7 | Cc1cc(N2C(=O)c3nc(C4=CCOCC4)[nH]c3C2c2ccc(Cl)cc2)nc2c1nnn2C (stereo not drawn) [Example 162, 6-(4-chlorophenyl)-2-(3,6-dihydro-2H-pyran-4-yl)-5-(3,7-dimethyl-3H-[1,2,3]triazolo[4,5-b]pyridin-5-yl)-5,6-dihydropyrrolo[3,4-d]imidazol-4(1H)-one] | 11.5 | 13 | 4.37 | 11.12 | 41 | >7000 | – | 5.03 | 10.54 | > 37000
8 | COc1ncccc1-c1nc2c([nH]1)C(c1ccc(Cl)cc1)N(c1cc(C)c3nnn(C)c3n1)C2=O (stereo not drawn) [Example 163, 6-(4-chlorophenyl)-5-(3,7-dimethyl-3H-[1,2,3]triazolo[4,5-b]pyridin-5-yl)-2-(2-methoxypyridin-3-yl)-5,6-dihydropyrrolo[3,4-d]imidazol-4(1H)-one] | 13 | 16 | 15.5 | 29.05 | 53.3 | >10000 | – | 15.8 | 25.75 | > 37000
9 | Cc1cc(N2C(=O)c3nc(C4=CCOCC4)n(C(C)C)c3[C@H]2c2ccc(Cl)cc2)nc2c1nnn2C [Example 164, (R)-6-(4-chlorophenyl)-2-(3,6-dihydro-2H-pyran-4-yl)-5-(3,7-dimethyl-3H-[1,2,3]triazolo[4,5-b]pyridin-5-yl)-1-isopropyl-5,6-dihydropyrrolo[3,4-d]imidazol-4(1H)-one] | < 11 | < 11 | 0.887 | 1.83 | 13.2 | >10000 | – | 1.12 | 2.43 | 11200
10 | Cc1cc(N2C(=O)c3nc(C4=CCOCC4)[nH]c3[C@H]2c2ccc(Cl)cc2)nc2c1nnn2C [Example 165, (R)-6-(4-chlorophenyl)-2-(3,6-dihydro-2H-pyran-4-yl)-5-(3,7-dimethyl-3H-[1,2,3]triazolo[4,5-b]pyridin-5-yl)-5,6-dihydropyrrolo[3,4-d]imidazol-4(1H)-one] | 19 | 18 | 4.12 | 12.74 | 47.9 | >10000 | – | 4 | 15.67 | 14800
11 | COc1ncccc1-c1nc2c([nH]1)[C@@H](c1ccc(Cl)cc1)N(c1cc(C)c3nnn(C)c3n1)C2=O [Example 166, (R)-6-(4-chlorophenyl)-5-(3,7-dimethyl-3H-[1,2,3]triazolo[4,5-b]pyridin-5-yl)-2-(2-methoxypyridin-3-yl)-5,6-dihydropyrrolo[3,4-d]imidazol-4(1H)-one] | 13 | 12 | 5.42 | 8.15 | 84.6 | >10000 | – | 7.54 | 11.28 | 33100
12 | Cc1cc(N2C(=O)c3nc(C4CCOC4)n(C(C)C)c3[C@H]2c2ccc(Cl)cc2)cc2c1nnn2C (stereo partly drawn) [Example 172, (6R)-6-(4-chlorophenyl)-5-(1,4-dimethyl-1H-benzo[d][1,2,3]triazol-6-yl)-1-isopropyl-2-(tetrahydrofuran-3-yl)-5,6-dihydropyrrolo[3,4-d]imidazol-4(1H)-one] | 13 | 17 | 5.22 | 10.33 | 19.6 | >10000 | – | 6.28 | 12.26 | 980
